Results from patent publication US20180265877A1, “METHODS AND COMPOSITIONS FOR AGROBACTERIUM COMPRISING NEGATIVE SELECTION MARKERS” (PIONEER HI-BRED INTERNATIONAL, INC., priority 2015, published 2018).

Experiments:
AGL0 THY− = experiment: Agrobacterium growth assay on solid medium, thymidine auxotroph AGL0 THY−; type: cell-based; conditions: thy 50 mg/l, 5-fluorouracil 0 μg/ml, after 24 hours
Experimental: (§1) In Table 4, results of a more detailed kill-curve for strain AGL0 on 5-fluorouracil are shown. […] Finally, a third experiment was performed using either wild-type AGL0 or an auxotrophic mutant of AGL0 in which the gene encoding thymidylate synthase was inactivated, rendering the bacteria incapable of growth in the absence of thymidine (this strain was referred to as AGL0 THY−). The two strains were plated at high densities (10^6 or 10^8 CFU/plate) onto medium containing 0, 1 or 3 μg/ml 5-fluorouracil, with each of these three treatments containing either 0 or 50 mg/l thymidine.

[1] = tested on: AGL0 mutant strain (THY−/codA+); experiment: Growth of AGL0 THY−/codA+ on 5-fluorocytosine; type: cell-based, Agrobacterium
Experimental: (§2) The newly developed AGL0 mutant strain (THY−/codA+, see Example 1) was plated on varying concentrations of 5-fluorocytosine to assess growth. This strain, along with wild-type AGL0 were cultured overnight in liquid medium, diluted to 10^7 CFU and then 100 μl of suspension was plated onto minimal Agro medium+/− thymidine, with either 0, 100, 200 or 300 μg/ml 5-fluorocytosine, for a total of 8 treatments. After 72 hours at 28° C., the plates were scored for Agrobacterium growth.

[2] = tested on: Agrobacterium strain AGL0; experiment: Agrobacterium growth assay on solid minimal medium, wild-type AGL0; type: cell-based; parameters: key to Growth score: a score of zero (0) indicating no visible colonies; 1+ indicating a few isolated colonies; ++: progressing up to 5+; +++: progressing up to 5+; ++++: progressing up to 5+; +++++: 5+ indicating a confluent lawn
Experimental: (§3) For all Agrobacterium growth-assay experiments, standard Agrobacterium minimal medium was used, with no additives as a control treatment, or with the addition of either 5-fluorocytosine, 5-fluorouracil or thymidine. To begin these tests, experiments were conducted to test for growth of wild-type and mutant AGL0 Agrobacterium strains on either 5-fluorocytosine (5-fluorocytosine, the non-toxic substrate of the CODA protein) or 5-fluorouracil (5-fluorouracil, the toxic product).
as §1, §2

[3] = tested on: four Agrobacterium strains (AGL0, LBA4404, EHA101 and EHA105); experiment: Agrobacterium growth assay, the four strains; type: cell-based; conditions: 5-fluorocytosine up to the highest concentration tested (1000 μg/ml)
Experimental: as §3

[4] = tested on: Agrobacterium strain EHA101; experiment: Agrobacterium growth assay on solid minimal medium, EHA101; type: cell-based; parameters: key: a score of zero (0) indicating no visible colonies; 1+ indicating a few isolated colonies; ++: progressing up to 5+; +++: progressing up to 5+; ++++: progressing up to 5+; +++++: 5+ indicating a confluent lawn; conditions: EHA101 plated at 1 x 10^4, after 3 days
Experimental: as §3

[5] = tested on: Agrobacterium strain LBA4404; experiment: Agrobacterium growth assay on solid minimal medium, LBA4404; type: cell-based; parameters: key: a score of zero (0) indicating no visible colonies; 1+ indicating a few isolated colonies; ++: progressing up to 5+; +++: progressing up to 5+; ++++: progressing up to 5+; +++++: 5+ indicating a confluent lawn; conditions: LBA4404 plated at 1 × 10^4, after 3 days
Experimental: as §3

[6] = tested on: immature embryos of inbred PHH5G; experiment: Callus initiation from corn immature embryos, inbred PHH5G; type: cell-based; conditions: for PHH5G: embryos producing a callus response / embryos plated / Embryo with culture - Response (callus initiation frequency): 18 d cultured on 13152C; for Embryo with culture - Response (callus initiation frequency): PHH5G
Experimental: (§4) Agrobacterium was tolerant of the substrate (5-fluorocytosine) and was inhibited by low levels of the converted product (5-fluorouracil). An experiment was performed to determine whether corn immature embryos and growing callus were sensitive to the substrate, 5-fluorocytosine. Immature embryos of two inbred lines ([…] or PHH5G, representative non-stiff-stalk and stiff-stalk Pioneer Hi-Bred inbreds) were plated onto appropriate callus culture media (see Table 6) supplemented with 0, 100, […]

[7] = tested on: Agrobacterium strain EHA105; experiment: Agrobacterium growth assay on solid minimal medium, EHA105; type: cell-based; parameters: key: a score of zero (0) indicating no visible colonies; 1+ indicating a few isolated colonies; ++: progressing up to 5+; +++: progressing up to 5+; ++++: progressing up to 5+; +++++: 5+ indicating a confluent lawn; conditions: EHA105 plated at 1 × 10^4, after 3 days
Experimental: as §3

[8] = tested on: immature embryos of inbred HC69; experiment: Callus initiation from corn immature embryos, inbred HC69; type: cell-based; conditions: for HC69: embryos producing a callus response / embryos plated / Embryo with culture - Response (callus initiation frequency): 18 d cultured on 13152C; for Embryo with culture - Response (callus initiation frequency): HC69
Experimental: as §4

Cc1cn([C@H]2C[C@H](O)[C@@H](CO)O2)c(=O)[nH]c1=O [thy, thymidine]
Growth score (AGL0 THY−; AGL0 THY- 1 x 10^6): +++ | Growth score (AGL0 THY−; AGL0 THY- 1 x 10^8): +++ | Growth ([1]; 50 mg/l thymidine, no 5-fluorocytosine, 72 hours): confluent lawn of colonies | Growth score ([2]; AGL0 1 x 10^6, thy 50 mg/l, 5-fluorouracil 0 μg/ml, after 24 hours): +++ | Growth score ([2]; AGL0 1 x 10^8, thy 50 mg/l, 5-fluorouracil 0 μg/ml, after 24 hours): +++

Nc1nc(=O)[nH]cc1F [5-fluorocytosine]
Growth inhibition [3]: no apparent growth inhibition | Growth score ([4]; 500 μg/ml 5-fluorocytosine): +++ | Growth score ([4]; 1000 μg/ml 5-fluorocytosine): +++ | Growth score ([5]; 500 μg/ml 5-fluorocytosine): +++ | Growth score ([5]; 1000 μg/ml 5-fluorocytosine): +++ | PHH5G: embryos producing a callus response / embryos plated ([6]; 100 μg/ml 5-fluorocytosine): 12/50 | PHH5G: embryos producing a callus response / embryos plated ([6]; 250 μg/ml 5-fluorocytosine): 18/50 | PHH5G: embryos producing a callus response / embryos plated ([6]; 400 μg/ml 5-fluorocytosine): 8/25 | Embryo with culture - Response (callus initiation frequency) ([6]; 100 μg/ml 5-fluorocytosine): 24% | Embryo with culture - Response (callus initiation frequency) ([6]; 250 μg/ml 5-fluorocytosine): 36% | Embryo with culture - Response (callus initiation frequency) ([6]; 400 μg/ml 5-fluorocytosine): 32% | Callus initiation frequency or callus growth rates vs no 5-fluorocytosine ([6]; inbred PHH5G, 100, 250 or 400 μg/ml 5-fluorocytosine, 3 weeks): no discernible differences | Growth ([1]; 100, 200 or 300 μg/ml 5-fluorocytosine, thymidine present, 72 hours at 28° C.): did not grow | Growth score ([2]; AGL0 plated at 1 × 10^4, 500 μg/ml 5-fluorocytosine, after 3 days): +++ | Growth score ([2]; AGL0 plated at 1 × 10^4, 1000 μg/ml 5-fluorocytosine, after 3 days): +++ | Growth score ([2]; AGL0 plated at 4 × 10^7, 500 μg/ml 5-fluorocytosine, after 3 days): +++++ | Growth score ([2]; AGL0 plated at 4 × 10^7, 1000 μg/ml 5-fluorocytosine, after 3 days): +++++ | Growth ([2]; wild-type AGL0, 100, 200 or 300 μg/ml 5-fluorocytosine, +/− thymidine, 72 hours at 28° C.): grew under all 5-fluorocytosine concentrations | Growth score ([7]; 500 μg/ml 5-fluorocytosine): +++ | Growth score ([7]; 1000 μg/ml 5-fluorocytosine): +++ | HC69: embryos producing a callus response / embryos plated ([8]; 100 μg/ml 5-fluorocytosine): 32/50 | HC69: embryos producing a callus response / embryos plated ([8]; 250 μg/ml 5-fluorocytosine): 34/50 | HC69: embryos producing a callus response / embryos plated ([8]; 400 μg/ml 5-fluorocytosine): 34/50 | Embryo with culture - Response (callus initiation frequency) ([8]; 100 μg/ml 5-fluorocytosine): 64% | Embryo with culture - Response (callus initiation frequency) ([8]; 250 μg/ml 5-fluorocytosine): 68% | Embryo with culture - Response (callus initiation frequency) ([8]; 400 μg/ml 5-fluorocytosine): 68% | Callus initiation frequency or callus growth rates vs no 5-fluorocytosine ([8]; inbred printed as HC96, 100, 250 or 400 μg/ml 5-fluorocytosine, 3 weeks): no discernible differences
